Results from patent publication US11230526B1, “Cylcoalkenyl derivatives useful as agonists of the GPR120 and/or GPR40 receptors” (Janssen Pharmaceutica NV, priority 2018, dated 2022).

Experiments:
Human GPR120 short form = target: T1, Human GPR120 short form (Homo sapiens, UniProt Q5NUL3); experiment: Human GPR120 calcium flux assay, Procedure Calcium B (4200 cells/well); assay type: cell-based
T1 construct: expressed in transfected cells
T1 sequence (Q5NUL3 1-361): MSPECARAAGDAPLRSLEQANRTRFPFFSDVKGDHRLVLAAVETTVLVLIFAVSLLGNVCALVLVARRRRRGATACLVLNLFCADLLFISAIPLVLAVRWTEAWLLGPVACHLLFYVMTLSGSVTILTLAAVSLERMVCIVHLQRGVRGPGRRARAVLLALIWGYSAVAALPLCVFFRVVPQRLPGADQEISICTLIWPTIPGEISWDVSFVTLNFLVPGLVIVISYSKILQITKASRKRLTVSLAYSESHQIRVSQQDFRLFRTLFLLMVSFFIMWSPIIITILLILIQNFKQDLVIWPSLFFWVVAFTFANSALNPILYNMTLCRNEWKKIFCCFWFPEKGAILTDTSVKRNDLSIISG
Method: Human GPR120 in Calcium Flux Assay
These cells are first loaded with the Ca^+2 sensitive dye, Fluo-4 NW. Upon stimulation, intracellular released Ca^+2 can bind to the dye and alter its fluorescence intensity. This increase in fluorescence signal, and thus the flux in intracellular [Ca^2+], is detected and quantitated by fluorescence imaging using a FLIPR reader. The effect of the agonist is measured as a function of concentration and used to calculate an EC50 based upon a response curve.
In this procedure 4200 cells/well were employed.
A Human GPR120 clone (Genbank accession number NM_001195755.1) was placed into the pcDNA3.1 mammalian expression vector carrying the neomycin resistance gene. A stable mammalian cell was generated by placing the above clone into a HEK293 background. […] Cells were split 2 times a week to keep the cells in the log-phase growth. […]
The assay was performed on a FLIPR plate reader using the following parameters. Baseline was read for 10 seconds at 1 sec intervals. The program was set to transfer 10 μL of ligand from compound plate to cell plate after baseline reading. Aspiration was executed at: 10 μL/sec speed, 4.6 μL height, Dispensing was executed at: 30 μL/sec speed, 45 μL height. After compound addition, each well was read for 300 sec, with measurements collected at 1 sec intervals.
The kinetic data from the FLIPR was based upon a 5 minute window for data collection. The fluorescence of each sample well was used for individual calculations of a normalized RFU value, which was defined as maximum response minus the minimum response. The normalized fluorescence reading (RFU) was calculated as follows: RFU=Fmax−Fmin
The Fitting Equation was: Y=Bottom+(Top-Bottom)/(1+10^((Log EC50−X)*HillSlope)), where X is the log of the concentration and Y is the response.

human GPR40 = target: T2, human GPR40 (Homo sapiens, UniProt O14842); experiment: GPR40 calcium flux assay, human GPR40; assay type: cell-based; conditions: HEK293 cells stably expressing GPR40; table does not say human or rat
T2 construct: expressed in transfected cells
Method: Compounds were tested in a calcium flux assay using transfected HEK293 cells stably expressing either human GPR40 or rat GPR40. Human GPR40 expressing cells were cultured in DMEM−High Glucose media supplemented with 10% fetal bovine serum, 1×L-Glutamine, 1×Penicillin/Streptomycin and 500 μg/mL G418. Rat GPR40 expressing cells were cultured in DMEM−High Glucose media supplemented with 10% fetal bovine serum and 1 μg/mL puromycin. Cells were plated into poly-D-lysine coated 384-well plates and cultured overnight in a 37° C. humidified tissue culture incubator under 5% CO2/[…] atmosphere.
On the day of the experiment, the culture media was replaced with assay buffer (HBSS, 20 mM HEPES, 0.1% BSA) and the cells incubated at 37° C. for 1 h. Calcium-sensitive fluorescent dye (Fluo 8 No-Wash Calcium Dye, ABD Bioquest) was then added and the cells incubated for another 30 min at 37° C. followed by 15 min at room temperature while protected from the light. The cell plate and a plate of diluted compounds of Formula (I) were loaded into a fluorescent plate reader that added compounds onto the cells while measuring the fluorescence intensity of each well. The plate reader recorded fluorescence intensity at 1 second intervals for 8 min and provided the data for analysis in an Excel format. EC50 values were calculated using Prism (GraphPad) software.

T2 sequence (O14842 whole entry): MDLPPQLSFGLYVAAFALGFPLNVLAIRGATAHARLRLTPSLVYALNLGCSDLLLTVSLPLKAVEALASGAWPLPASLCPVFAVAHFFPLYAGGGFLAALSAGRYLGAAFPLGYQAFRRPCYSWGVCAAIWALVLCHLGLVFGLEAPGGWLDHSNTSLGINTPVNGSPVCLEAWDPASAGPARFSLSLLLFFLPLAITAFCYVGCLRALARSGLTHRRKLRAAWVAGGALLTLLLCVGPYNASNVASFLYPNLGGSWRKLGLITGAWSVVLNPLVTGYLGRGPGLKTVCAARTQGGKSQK

SMILES | EC50 (Human GPR120 short form) | EC50 (human GPR40)
O=C(O)CCc1ccc(OCC2=C(c3ccc(Cl)cc3)CC(F)(F)C2)cc1C(F)(F)F [Compound 248, 3-[4-[[2-(4-chlorophenyl)-4,4-difluoro-cyclopenten-1-yl]methoxy]-2-(trifluoromethyl)phenyl]Propanoic Acid] | 361 nM | 188 nM
Cc1ccc(C2=C(COc3ccc(CCC(=O)O)c(C(F)(F)F)c3)CC(F)(F)C2)cc1 [Compound 249, 3-[4-[[4,4-difluoro-2-(p-tolyl)cyclopenten-1-yl]methoxy]-2-(trifluoromethyl)phenyl]Propanoic Acid] | 173 nM | 463 nM
Cc1ccc(C2=C(COc3ccc(CCC(=O)O)c(Cl)c3)CC(F)(F)C2)cc1 [Compound 250, 3-[2-chloro-4-[[4,4-difluoro-2-(p-tolyl)cyclopenten-1-yl]methoxy]phenyl]Propanoic Acid] | 76 nM | 1480 nM
O=C(O)CCc1ccc(OCC2=C(c3ccc(Cl)cc3)CC(F)(F)C2)cc1Cl [Compound 251, 3-[2-chloro-4-[[2-(4-chlorophenyl)-4,4-difluoro-cyclopenten-1-yl]methoxy]phenyl]Propanoic Acid] | 195 nM | 579 nM
Cc1c(CCC(=O)O)cc(F)c(OCC2=C(c3ccc(F)cc3)CCC2)c1C [Compound 254, 3-[5-fluoro-4-[[2-(4-fluorophenyl)cyclopenten-1-yl]methoxy]-2,3-dimethyl-phenyl]Propanoic Acid] | 594 nM | > 5000 nM
COc1cc(C)ccc1C1=C(COc2ccc(CCC(=O)O)cc2)CCC1 [Compound 255] | > 5000 nM | 1300 nM
Cc1ccccc1C1=C(COc2ccc(CCC(=O)O)c(C(F)(F)F)c2)CCC1 [Compound 257, 3-[4-[[2-(o-tolyl)cyclopenten-1-yl]methoxy]-2-(trifluoromethyl)phenyl]Propanoic Acid] | 2640 nM | 337 nM
O=C(O)CCc1ccc(OCC2=C(c3ccccc3)CCC2)cc1C(F)(F)F [Compound 258, 3-[4-[(2-phenylcyclopenten-1-yl)methoxy]-2-(trifluoromethyl)phenyl]Propanoic Acid] | 614 nM | 481 nM
O=C(O)CCc1ccc(OCC2=C(c3ccccc3)CCC2)cc1Cl [Compound 259, 3-[2-chloro-4-[(2-phenylcyclopenten-1-yl)methoxy]phenyl]Propanoic Acid] | 1220 nM | 1570 nM
O=C(O)CCc1ccc(OCC2=C(c3ccc(F)cc3)CCC2)cc1Cl [Compound 260, 3-[2-chloro-4-[[2-(4-fluorophenyl)cyclopenten-1-yl]methoxy]phenyl]Propanoic Acid] | 541 nM | 488 nM
COc1cc(C2=C(COc3ccc(CCC(=O)O)cc3)CCC2)ccc1C [Compound 261] | 1540 nM | 1620 nM
Cc1cc(OCC2=C(c3ccccc3C)CCC2)c(F)cc1CCC(=O)O [Compound 262, 3-[5-fluoro-2-methyl-4-[[2-(o-tolyl)cyclopenten-1-yl]methoxy]phenyl]Propanoic Acid] | > 5000 nM | 1290 nM
O=C(O)CCc1ccc(OCC2=C(c3cccc(F)c3)CCC2)cc1C(F)(F)F [Compound 263, 3-[4-[[2-(3-fluorophenyl)cyclopenten-1-yl]methoxy]-2-(trifluoromethyl)phenyl]Propanoic Acid] | 262 nM | 134 nM
Cc1ccc(C2=C(COc3cc(C)c(CCC(=O)O)cc3F)CCC2)cc1F [Compound 264, 3-[5-fluoro-4-[[2-(3-fluoro-4-methyl-phenyl)cyclopenten-1-yl]methoxy]-2-methyl-phenyl]Propanoic Acid] | 103 nM | 1590 nM
Cc1cc(OCC2=C(c3ccccc3Cl)CCC2)c(F)cc1CCC(=O)O [Compound 265, 3-[4-[[2-(2-chlorophenyl)cyclopenten-1-yl]methoxy]-5-fluoro-2-methyl-phenyl]Propanoic Acid] | 1210 nM | 1140 nM
[2H]C([2H])([2H])c1ccc(C2=C(COc3ccc(CCC(=O)O)c(C(F)(F)F)c3)CCC2)cc1 [Compound 268-D, 3-[4-[[2-[4-(trideuteriomethyl)phenyl]cyclopenten-1-yl]methoxy]-2-(trifluoromethyl)phenyl]Propanoic Acid] | 685 nM | 992 nM
O=C(O)CCc1ccc(OCC2=C(c3ccc(Br)cc3)CCC2)cc1C(F)(F)F [Compound 269, 3-[4-[[2-(4-bromophenyl)cyclopenten-1-yl]methoxy]-2-(trifluoromethyl)phenyl]Propanoic Acid] | 2240 nM | 604 nM
Cc1ccc(C2=C(COc3cc(C)c(CCC(=O)O)cc3F)CCC2)c(F)c1 [Compound 270, 3-[5-fluoro-4-[[2-(2-fluoro-4-methyl-phenyl)cyclopenten-1-yl]methoxy]-2-methyl-phenyl]Propanoic Acid] | 189 nM | 1500 nM
O=C(O)CCc1ccc(OCC2=C(c3ccc(C(F)(F)F)cc3)CCC2)cc1Cl [Compound 272, 3-[2-chloro-4-[[2-[4-(trifluoromethyl)phenyl]cyclopenten-1-yl]methoxy]phenyl]Propanoic Acid] | 2240 nM | 265 nM
Cc1ccc(C2=C(COc3ccc(CCC(=O)O)c(Cl)c3)CCC2)c(F)c1 [Compound 273, 3-[2-chloro-4-[[2-(2-fluoro-4-methyl-phenyl)cyclopenten-1-yl]methoxy]phenyl]Propanoic Acid] | 213 nM | 1040 nM
O=C(O)CCc1ccc(OCC2=C(c3ccc(Cl)c(F)c3)CCC2)cc1Cl [Compound 274, 3-[2-chloro-4-[[2-(4-chloro-3-fluoro-phenyl)cyclopenten-1-yl]methoxy]phenyl]Propanoic Acid] | 518 nM | 215 nM
O=C(O)CCc1ccc(OCC2=C(c3ccc(Cl)cc3F)CCC2)cc1Cl [Compound 275] | 307 nM | 286 nM
O=C(O)CCc1ccc(OCC2=C(c3ccc(Br)cc3)CCC2)cc1Cl [Compound 276, 3-[4-[[2-(4-bromophenyl)cyclopenten-1-yl]methoxy]-2-chloro-phenyl]Propanoic Acid] | 427 nM | 193 nM
Cc1cc(OCC2=C(c3ccccc3)CCC2)c(F)cc1CCC(=O)O [Compound 277, 3-[5-fluoro-2-methyl-4-[(2-phenylcyclopenten-1-yl)methoxy]phenyl]Propanoic Acid] | 799 nM | 2680 nM
COc1ccc(C2=C(COc3cc(C)c(CCC(=O)O)cc3F)CCC2)c(C)c1 [Compound 278, 3-[5-fluoro-4-[[2-(4-methoxy-2-methyl-phenyl)cyclopenten-1-yl]methoxy]-2-methyl-phenyl]Propanoic Acid] | > 5000 nM | 302 nM
COc1ccc(C2=C(COc3cc(C)c(CCC(=O)O)cc3F)CCC2)cc1 [Compound 279, 3-[5-fluoro-4-[[2-(4-methoxyphenyl)cyclopenten-1-yl]methoxy]-2-methyl-phenyl]Propanoic Acid] | 495 nM | 3520 nM
Cc1cc(OCC2=C(c3ccc(Cl)c(F)c3)CCC2)c(F)cc1CCC(=O)O [Compound 280, 3-[4-[[2-(4-chloro-3-fluoro-phenyl)cyclopenten-1-yl]methoxy]-5-fluoro-2-methyl-phenyl]Propanoic Acid] | 346 nM | 471 nM
Cc1cc(OCC2=C(c3ccc(Cl)cc3F)CCC2)c(F)cc1CCC(=O)O [Compound 281, 3-[4-[[2-(4-chloro-2-fluoro-phenyl)cyclopenten-1-yl]methoxy]-5-fluoro-2-methyl-phenyl]Propanoic Acid] | 314 nM | 474 nM
